Several values for one entry are separate records, joined by “and”; a condition that tells them apart may be missing. Equal values may be shown once.
Biological target: T1, mPRβ (Homo sapiens, UniProt Q8TEZ7)
T1 construct: expressed in transfected cells; host or cells: Saccharomyces cerevisiae BY4742, GAL1-driven pYES260 plasmid
T1 sequence (Q8TEZ7 1-354): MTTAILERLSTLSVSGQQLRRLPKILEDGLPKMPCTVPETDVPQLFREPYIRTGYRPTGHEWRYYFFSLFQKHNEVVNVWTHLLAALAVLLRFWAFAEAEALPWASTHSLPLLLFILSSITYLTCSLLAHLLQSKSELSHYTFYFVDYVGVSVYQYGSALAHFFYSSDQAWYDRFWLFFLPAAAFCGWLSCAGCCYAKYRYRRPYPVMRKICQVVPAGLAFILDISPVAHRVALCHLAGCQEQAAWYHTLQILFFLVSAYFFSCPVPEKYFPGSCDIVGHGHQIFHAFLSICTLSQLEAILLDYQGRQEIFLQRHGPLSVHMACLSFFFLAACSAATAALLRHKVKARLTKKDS
Test: FET3-lacZ reporter repression in yeast expressing mPRβ
Format: cell-based
Conditions: Table 3, iron deficient LIM, 0.05% galactose
Description: Plasmids and primers. Human PAQRs were cloned into various vectors by PCR from commercially/publically available cDNAs. PAQRs were cloned into the pYES260 (Melcher, 2000), pRS316 (Liu et al., 1992) or pGREG536 (Jansen et al., 2005) expression vectors using gap repair. The pJK90 plasmid containing a Dual Topology Reporter (DTR)-tagged OST4 gene driven by the constitutive TPI1 promoter was kindly provided by Dr. Gunnar von Heijne (Stockholm University) (Kim et al., 2003). The OST4 open reading frame in pJK90 was replaced with the PAQR6 and mPRα open reading frames by gap repair. Primers for all cloning reactions are listed herein. Proteins expressed in pYES260 have an N-terminal 6×-histidine tag followed by a TEV protease cleavage site. Proteins expressed in pGREG536 have an N-terminal 7×-HA tag. Proteins expressed in the pRS316 vector are untagged. The pYES260, pRS316 and pGREG536 vectors allow for galactose-inducible expression via the GAL1 promoter. […] The FET3-lacZ plasmid was previously described (Kupchak et al., 2007). […]
Assays and growth conditions. […] Cells were allowed to grow to mid-log phase at which time the activity of the FET3 gene was monitored using a FET3-lacZ promoter-reporter construct. lacZ activities are presented as a percentage of activity seen in untreated cells expressing the appropriate empty expression vector control. […]

Compound: CC(=O)[C@H]1CC[C@H]2[C@@H]3CCC4=CC(=O)CC[C@]4(C)[C@H]3CC[C@]12C [Progesterone, progesterone]
- EC50: 1.6 nM and 1 to 3 nM
